Measurements published in the Biogen ADME set (Fang et al. 2023).
≈ marks a conversion by molar mass, not a printed value.

Settings: for aqueous solubility: pH 6.8

Row | MDR1-MDCK efflux ratio | intrinsic clearance, human liver microsomes [mL/min/kg] | intrinsic clearance, rat liver microsomes [mL/min/kg] | aqueous solubility [µg/mL] | fraction unbound, human plasma | fraction unbound, rat plasma | Structure (SMILES)
1 | 1.31 | 10.6 | 60.9 |  |  |  | CNc1nc(Nc2cnn([C@H]3CCN(C4COC4)C[C@@H]3F)c2Cl)ncc1C(F)(F)F
2 |  | 153 | 817 |  |  |  | C[C@H](Cn1nc2c(cc1=O)CCCCC2)NC(=O)Cc1cccs1
3 | 19.2 | ≤ 4.74 | ≤ 10.7 | 46.9 (≈ 157 µM) |  |  | CNC(=O)c1cccc(Oc2ncnc3c2CN(C)CC3)c1
4 |  | 7.61 | 17.1 |  |  |  | O=S(=O)(Nc1ccc(C(O)(C(F)(F)F)C(F)(F)F)cc1)c1ccccc1
5 | 47.8 | ≤ 4.74 | 108 |  |  |  | Clc1ccc2c(c1)CCc1cccnc1C2=C1CCNCC1
6 | 0.306 | 27.8 | 398 | 11.8 (≈ 36.4 µM) |  |  | Cc1nc(C(C)C)sc1C(=O)Nc1nc(C(C)(C)C)cs1
7 | 0.543 | ≤ 4.74 | 71.6 | 60.8 (≈ 241 µM) |  |  | NC(=O)CN1CCC(Oc2cccc(F)c2)CC1
8 | 37.9 | 15.7 | 210 |  |  |  | CC(C)Oc1ccc(C2(C(=O)NC3CCS(=O)(=O)CC3)CCCC2)cc1
9 | 11 | 13.3 | 106 | 48.7 (≈ 120 µM) |  |  | Cc1c(-c2ccccc2)oc2c(C(=O)NCCCN3CCCCC3)cccc2c1=O
10 | 22.6 | 7.96 | 227 | 78 (≈ 185 µM) |  |  | CCN(CC)Cc1ccc2cc(COC(=O)Nc3ccc(C(=O)NO)cc3)ccc2c1
11 | 0.879 | ≤ 4.74 | ≤ 10.7 | 61.5 (≈ 148 µM) |  |  | Cc1ccc(C(=O)O)cc1NS(=O)(=O)c1csc(C(=O)Nc2ccccc2)c1
12 |  |  |  | 53.5 (≈ 164 µM) |  |  | CN(C)CCn1ccc2cc(NC(=O)c3ccc(=O)[nH]n3)ccc21
13 |  | 105 | 879 | 37 (≈ 148 µM) |  |  | c1cnc(NCCc2cccc3cccnc23)nc1
14 | 1.75 | 453 | 1060 |  |  |  | COc1ccc(Cl)cc1NC(=O)CN1CCCN(c2ccc(C(F)(F)F)cn2)CC1
15 | 0.534 | 126 | 516 |  |  |  | c1ccc(OCCN2CCN(c3ncccn3)CC2)cc1
16 | 9.14 | 71 | 1180 | 60.8 (≈ 181 µM) |  |  | O=C(CSC1CCCC1)NCCn1nc2c(cc1=O)CCCC2
17 | 1.17 | 92.5 | 2720 | 37 (≈ 101 µM) |  |  | CN(C)C1CN(c2nc(-c3cnccn3)nc3sc4c(c23)CCCC4)C1
18 | 1.31 | 9.49 | 195 | 27.2 (≈ 78.4 µM) |  |  | Cc1occc1C(=O)NCC(=O)Nc1nc2cc(Cl)ccc2n1C
19 | 45.8 | 74.2 | 279 | 53 (≈ 162 µM) |  |  | Cc1nn(C)c(C)c1CCC(=O)N1CCN(C)Cc2ccccc21
20 | 0.814 | ≤ 4.74 | ≤ 10.7 |  |  |  | Cc1nc2ncc3c(n2n1)CC(C)(C)CC3=O

Row | MDR1-MDCK efflux ratio | intrinsic clearance, human liver microsomes [mL/min/kg] | intrinsic clearance, rat liver microsomes [mL/min/kg] | aqueous solubility [µg/mL] | fraction unbound, human plasma | fraction unbound, rat plasma | Structure (SMILES)
21 | 7.73 | 55.8 | 294 | 36.4 (≈ 86.6 µM) |  |  | CC1(C)Cc2cc(CN3CCC4(CC3)NC(=O)N(Cc3ccccc3)C4=O)ccc2O1
22 | 2.68 | ≤ 4.74 | 340 |  |  |  | CCn1cnnc1CN(C)C1CCN(c2ccccc2F)CC1
23 |  |  |  | 0.55 (≈ 1.8 µM) |  |  | O=C(Nc1nc2ccccc2[nH]1)c1cc(Cl)ccc1Cl
24 | 39.4 | 5.73 | 236 | 62.3 (≈ 189 µM) |  |  | CC(=O)N1CCC(C(=O)Nc2nccs2)(c2ccccc2)CC1
25 |  |  |  | 37.5 (≈ 115 µM) |  |  | COc1ccc(-c2csc(CC(N)=O)n2)cc1Br
26 | 4.26 |  |  | 0.8 (≈ 1.95 µM) |  |  | O=C(CCOc1ccccc1)N1CCCC(c2n[nH]cc2-c2ccc(Cl)cc2)C1 (stereo not given)
27 | 0.858 | ≤ 4.74 | 14.2 |  |  |  | Cc1nn(C)c2ncc(CNc3ccon3)cc12
28 | 1.3 | 12.5 | 2880 |  |  |  | CC(COc1ccccc1Cc1ccccc1)N1CCCCC1 (stereo not given)
29 |  |  |  | 0.13 (≈ 0.358 µM) |  |  | Cn1ncc2c(N3CCN(c4ccc(Cl)c(Cl)c4)CC3)ncnc21
30 | 0.747 | 5.81 | 127 | 42.5 (≈ 122 µM) |  |  | O=C(c1ccc(-n2cccn2)nc1)N1CCN(c2ccccc2O)CC1
31 | 50.5 |  |  | 0.3 (≈ 0.572 µM) |  |  | C=CC(=O)Nc1cc(-n2c(=O)ccc3cnc4ccc(-c5ccc(NS(C)(=O)=O)cc5)cc4c32)ccc1C
32 |  | ≤ 4.74 | 444 |  |  |  | NC1(c2noc(-c3cccnc3)n2)CCCCCC1
33 | 10.3 | ≤ 4.74 | ≤ 10.7 | 57.7 (≈ 199 µM) |  |  | CCNC(=O)N1CCc2nc3ccc(F)cn3c(=O)c2C1
34 | 0.648 | ≤ 4.74 | ≤ 10.7 |  |  |  | OCc1cnnn1-c1cncc(Cl)n1
35 | 0.831 |  | 3000 | 26.9 (≈ 76.8 µM) |  |  | CC(C(=O)Nc1ccccc1)N1CCCC(c2nc3ccccc3o2)C1 (stereo not given)
36 | 0.419 | 32.4 | 1440 |  |  |  | CN(C)c1nccc(N2CCN(CCCCCF)CC2)n1
37 |  |  |  | 0.29 (≈ 0.992 µM) |  |  | Cc1ccc(NC(=O)c2nn(-c3ccccc3)nc2C)cc1
38 | 3.79 | 35.6 | 2700 |  |  |  | Cc1c[nH]c(CNCc2ccccc2CC(C)C)n1
39 | 8.42 | 6 | 27.7 | 62.2 (≈ 177 µM) | 0.604 | 0.893 | Cc1cc(F)ccc1C1C(=O)NCCN1C(=O)c1ccc2nccn2c1 (stereo not given)
40 | 0.547 | 25.3 | 191 | 15.4 (≈ 49.4 µM) |  |  | COc1ccc(C(=O)Nc2ccc3oc(C)nc3c2)c(OC)c1

Row | MDR1-MDCK efflux ratio | intrinsic clearance, human liver microsomes [mL/min/kg] | intrinsic clearance, rat liver microsomes [mL/min/kg] | aqueous solubility [µg/mL] | fraction unbound, human plasma | fraction unbound, rat plasma | Structure (SMILES)
41 |  | 269 | 5450 |  |  |  | O=C(CCn1ccc2ccccc21)N1CCC(n2c(=O)[nH]c3ccccc32)CC1
42 | 2.25 | 38.5 | 1610 |  |  |  | C#Cc1cccc(N(CC(=O)NC(N)=O)Cc2cccs2)c1
43 | 3.87 | ≤ 4.74 | ≤ 10.7 | 80.5 (≈ 217 µM) |  |  | O=C1Oc2nc3cc4c(cc3cc2CN1CCN1CCOCC1)OCCO4
44 | 0.739 | ≤ 4.74 | ≤ 10.7 | 31.6 (≈ 124 µM) |  |  | O=C(CN1CCSC1=O)Nc1ccccc1F
45 |  | 26.1 | 55.8 |  |  |  | CC(C)(C)c1cc(C(=O)CSc2nnnn2-c2ccccc2)cc(C(C)(C)C)c1O
46 | 1.61 | 120 | 2750 |  |  |  | CSC1(CNC(=O)N2CCC=C(c3ccccc3)C2)CCOCC1
47 | 55.7 | 20.4 | 815 |  |  |  | Cc1ccccc1CCNC(=O)N(Cc1cccnc1)C1CCN(C)CC1
48 | 2.76 | ≤ 4.74 | 126 | 62 (≈ 180 µM) |  |  | Cn1cc(C2CCN(CC(=O)N3CCc4sccc4C3)CC2)cn1
49 | 1.12 | ≤ 4.74 | ≤ 10.7 |  |  |  | CC(=O)NCc1cc2n(n1)CCN(C1Cc3ccccc3C1)C2
50 | 0.498 | 70.9 | 574 | 18.6 (≈ 85.1 µM) |  |  | CCCCCCNc1ncnc2[nH]ccc12
51 | 5.65 | 9.11 | 245 | 53.5 (≈ 148 µM) |  |  | O=C(NCCN1CCC(O)(c2cccc(F)c2)CC1)c1cccc(F)c1
52 |  | 35 | 339 | 4.25 (≈ 12.1 µM) |  |  | O=c1[nH]c2ccccc2n1C1CCN(c2ncnc3sccc23)CC1
53 | 1.08 | 32.8 | 88.9 |  |  |  | COCC(=O)Nc1ccc(NC(=O)Cc2ccc(C(F)(F)F)cc2)cc1
54 | 0.606 | 31.9 | 620 |  |  |  | Fc1ccc(CN2CCCN(c3ccc4nnnn4n3)CC2)cc1
55 |  | ≤ 4.74 | ≤ 10.7 |  |  |  | Cc1nc(CNC(=O)c2ccc(F)c(C)c2)no1
56 |  |  |  | 8.5 (≈ 27.5 µM) |  |  | CN(Cc1sccc1Br)c1nccnc1C#N
57 |  | 15.9 | 657 | 17.3 (≈ 77.3 µM) |  |  | CC(C)c1noc(CN(C)C2CCCC2)n1
58 | 0.644 | ≤ 4.74 | 102 |  |  |  | Cc1cc(Br)cn(Cc2ccc(C#N)cc2F)c1=O
59 |  |  |  | 18 (≈ 45.5 µM) |  |  | COc1cccc(C2NC(=O)NC(C)=C2C(=O)OCc2ccc3c(c2)OCO3)c1 (stereo not given)
60 | 1.89 | 6.62 | 76.2 | 27.1 (≈ 90.6 µM) |  |  | CCn1nccc1CNc1nnc(-c2ccc(OC)cc2)o1

Row | Structure (SMILES) | MDR1-MDCK efflux ratio | intrinsic clearance, human liver microsomes [mL/min/kg] | intrinsic clearance, rat liver microsomes [mL/min/kg] | aqueous solubility [µg/mL] | fraction unbound, human plasma | fraction unbound, rat plasma
61 | COc1cc(CCNC2CCC3(CC2)OCCO3)ccc1F | 1 | 60.6 | 2240 |  |  | 
